Structures are written as SMILES.

Series [1] deals with Lamium purpureum. Nature of the series: Postemergence herbicidal activity in cereal crops. The class given is in vivo. The conditions noted are these: Lamium purpureum, post-emergence, 480 h, post-emergent, after 20-22 days, read-out: % Control LAMPU; for pest or weed control at 17.5 g/ha: 17.5 g ai/ha; for pest or weed control at 35 g/ha: 35 g ai/ha. The method, boiled down:
(§1)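 Spray solutions contained acetone, water, isopropanol, DMSO, Agri-dex and Triton X-77, and an overhead track sprayer delivered them at 187 L/ha. Seedlings were treated at the second or third true leaf stage and held in a greenhouse at about 18 °C day/17 °C night with sub-irrigation.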

Series [2] relates to wheat (Triticum aestivum). As to the kind of experiment: Postemergence herbicidal activity in cereal crops. The class given is in vivo. The conditions noted are these: Triticum aestivum, post-emergence, 480 h, crop, post-emergent, after 20-22 days, read-out: % Control TRZAS; for plant injury at 17.5 g/ha: 17.5 g ai/ha; for plant injury at 35 g/ha: 35 g ai/ha. The method, boiled down: as §1

The subject of series [3] is Papaver rhoeas. Nature of the series: Postemergence herbicidal activity in cereal crops. The class given is in vivo. The conditions noted are these: Papaver rhoeas, post-emergence, 480 h, post-emergent, after 20-22 days, read-out: % Control PAPRH; for pest or weed control at 17.5 g/ha: 17.5 g ai/ha; for pest or weed control at 35 g/ha: 35 g ai/ha. The method, boiled down:
as §1

The subject of series [4] is barley (Hordeum vulare). Nature of the series: Postemergence herbicidal activity in cereal crops. Particulars: Hordeum, post-emergence, 480 h, crop, post-emergent, after 20-22 days, read-out: % Control HORVS; for pest or weed control at 17.5 g/ha: 17.5 g ai/ha; for pest or weed control at 35 g/ha: 35 g ai/ha. The class given is in vivo. The method, boiled down:
as §1

Series [5] deals with Veronica persica. Nature of the series: Postemergence herbicidal activity in cereal crops. It is filed as in vivo. The conditions noted are these: Veronica persica, post-emergence, 480 h, post-emergent, after 20-22 days, read-out: % Control VERPE; for pest or weed control at 17.5 g/ha: 17.5 g ai/ha; for pest or weed control at 35 g/ha: 35 g ai/ha. The method, boiled down: as §1

Series [6] has as its system Galium aparine. Nature of the series: Postemergence herbicidal activity in cereal crops. The class given is in vivo. The conditions noted are these: Galium aparine, post-emergence, 480 h, post-emergent, after 20-22 days, read-out: % Control GALAP; for pest or weed control at 17.5 g/ha: 17.5 g ai/ha; for pest or weed control at 35 g/ha: 35 g ai/ha. A digest of the protocol: as §1

The subject of series [7] is rice (Orysa sativa var. Japonica). Nature of the series: Herbicidal activity in transplanted paddy rice. It is filed as in vivo. Particulars: Oryza sativa, 504 h, transplant rice (crop), paddy water application, after 3 weeks; for pest or weed control at 17.5 g/ha: 17.5 g ai/ha; for pest or weed control at 70 g/ha: 70 g ai/ha. The method, boiled down: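 Rice seedlings transplanted at second to third leaf stage and weeds from seed were grown in flooded mud pots in a greenhouse (~29/26 °C, 14 h photoperiod). At second or third true leaf stage, acetone stock solutions were injected into the paddy water at the high rate and ½× to 1/16× dilutions. Solvent-blank controls.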

The melting point is the temperature, or range, at which the solid turns liquid. The compound `COC(=O)c1nc(-c2ccc(Br)c(OC)c2F)cc(N)c1Cl` [Compound 27, 4-amino-6-(4-bromo-2-fluoro-3-methoxyphenyl)-3-chloro-pyridine-2-carboxylic acid methyl ester] came in with a melting point of 164 to 165 °C. The pest or weed control at 17.5 g/ha in series [1] amounted to 100%. Moreover, the plant injury at 17.5 g/ha in series [2] was found to be 5%. Moreover, the pest or weed control at 17.5 g/ha in series [3] stood at 100%. For the same compound, the pest or weed control at 17.5 g/ha in series [4] was determined as 5%. Besides, the pest or weed control at 17.5 g/ha in series [5] came out at 50%. Moreover, in series [6], the pest or weed control at 17.5 g/ha is 99%. The same compound yielded a pest or weed control at 17.5 g/ha in series [7] of 0%.
In the case of `COC(=O)c1nc(-c2ccc(Cl)c(OC)c2F)cc(N)c1Cl` [Compound 42, 4-Amino-3-chloro-6-(4-chloro-2-fluoro-3-methoxyphenyl)pyridine-2-carboxylic acid methyl ester], the pest or weed control at 17.5 g/ha in series [1] amounted to 100%; in series [3] it was 99%; in series [4] it was 5%; in series [5], 60%; in series [6], 99%; in series [7], 5%. In addition, in series [2], the plant injury at 17.5 g/ha came to 5%.
For `COC(=O)c1nc(-c2ccc(Cl)c(OC)c2Cl)cc(N)c1Cl` [Compound 44, 4-Amino-3-chloro-6-(2,4-dichloro-3-methoxyphenyl)pyridine-2-carboxylic acid methyl ester], the melting point lay within 168 to 170 °C. For the same compound, in series [1], the pest or weed control at 35 g/ha stood at 99%. In addition, the plant injury at 35 g/ha in series [2] is 10%. Also, the pest or weed control at 35 g/ha in series [3] turned out to be 90%. Besides, in series [4], the pest or weed control at 35 g/ha stood at 5%. In addition, in series [5], the pest or weed control at 35 g/ha worked out at 60%. In addition, the pest or weed control at 35 g/ha in series [6] came out at 65%. The compound further had a pest or weed control at 70 g/ha in series [7] of 0%.
On to `COC(=O)c1nc(-c2c(F)cc(Cl)c(OC)c2F)cc(N)c1Cl` [Compound 58, 4-Amino-3-chloro-6-(4-chloro-2,6-difluoro-3-methoxyphenyl)pyridine-2-carboxylic acid, methyl ester], for which the pest or weed control at 17.5 g/ha in series [1] came out at 100%; in series [3] it was 99%; in series [4], 0%; in series [5] it was 60%; in series [6], 100%; in series [7] it was 0%. The plant injury at 17.5 g/ha in series [2] was 0%.
In the case of `COC(=O)c1nc(-c2ccc(F)c(OC)c2F)cc(N)c1Cl` [Compound 70, 4-Amino-3-chloro-6-(2,4-difluoro-3-methoxyphenyl)pyridine-2-carboxylic acid, methyl ester], the pest or weed control at 17.5 g/ha was determined as 100% in series [1]; 99% in series [3]; 0% in series [4]; 60% in series [5]; 99% in series [6]. In addition, the plant injury at 17.5 g/ha in series [2] amounted to 0%. For the same compound, the pest or weed control at 70 g/ha in series [7] is 0%.
`COC(=O)c1nc(-c2c(F)cc(Br)c(OC)c2F)cc(N)c1Cl` [Compound 77, 4-Amino-6-(4-bromo-2,6-difluoro-3-methoxyphenyl)-3-chloropyridine-2-carboxylic acid, methyl ester]: the pest or weed control at 17.5 g/ha came to 100% in series [1]; 99% in series [3]; 0% in series [4]; 65% in series [5]; 99% in series [6]. Also, the plant injury at 17.5 g/ha in series [2] came to 0%. The compound also yielded a pest or weed control at 35 g/ha in series [7] (35 g ai/ha) of 0%.
For `COc1c(Cl)ccc(-c2cc(N)c(Cl)c(C(=O)O)n2)c1F` [Compound 100, 4-Amino-3-chloro-6-(4-chloro-2-fluoro-3-methoxyphenyl)pyridine-2-carboxylic acid], the pest or weed control at 17.5 g/ha in series [1] is 100%; in series [3], 95%; in series [4], 5%; in series [5] it was 65%; in series [6], 90%; in series [7] it was 10%. Further, the plant injury at 17.5 g/ha in series [2] was 10%.
For the compound `COc1c(Cl)ccc(-c2cc(N)c(Cl)c(C(=O)O)n2)c1Cl` [Compound 103, 4-Amino-3-chloro-6-(2,4-dichloro-3-methoxyphenyl)pyridine-2-carboxylic acid], the melting point was 179 to 180 °C (dec.). Moreover, the pest or weed control at 35 g/ha in series [1] worked out at 95%. Besides, in series [2], the plant injury at 35 g/ha was determined as 0%. In addition, in series [3], the pest or weed control at 35 g/ha came to 100%. Further, the pest or weed control at 35 g/ha in series [4] was determined as 0%. Besides, in series [5], the pest or weed control at 35 g/ha came to 75%. In addition, the pest or weed control at 35 g/ha in series [6] came out at 60%. Moreover, the pest or weed control at 70 g/ha in series [7] worked out at 10%.

Values taken from patent US20070179060A1, “6-(Poly-substituted aryl)-4-aminopicolinates and their use as herbicides” (priority 2006, published 2007).
